Experiment [1] concerns MM1.S (multiple myeloma) cells. Put plainly: In vitro cell proliferation potency assay, Cell Titer Glo (Example 902). It counts as cell-based. To be noted: Homo sapiens, incubated for 72 hours, read-out: Prolif MM1S ATP (EC50). Here is the method: (§1) BaF3 parental line was obtained from the DSMZ repository. BaF3 lines transfected with PIM 1 or PIM2 were generated. Mouse IL-3 was purchased from R&D Systems. G418 was purchased from Clontech. Media for BaF3 parental line contained RPMI, 10% FBS, 2 mM L-Glutamine, 2 ng/mL mIL-3. Media for BaF3 PIM1 & 2 lines contained RPMI, 10% FBS, 2 mM L-Glutamine, […]. Media for MM1.S (multiple myeloma cells) line contained RPMI, 10% FBS, 2 mM L-Glutamine.
(§2) BaF3, a murine interleukin-3 dependent pro-B cell line, parental cells, BaF3 PIM1 cells, BaF3 PIM2 cells, and MM1.S (multiple myeloma) cells were seeded at 2 k/well, 5 k/well, 5 k/well, and 10 k/well respectively, in a 384-well plate, at 45 μL/well. Test compound was added at 5 μL/well. BaF3 cells (parental and transfected) were incubated overnight, while MM1.S cells were incubated for 72 hours at 37° C., 5% CO2. Cell Titer Glo Reagent (Promega) was added at 50 μL/well, the plates were incubated for 30 minutes, and their luminescence read on an HT Analyst. IC50/EC50 values for the test compound were calculated.
Background: Cellular ATP, detected with luciferase, serves as a proxy for viable cell number.

For a further experiment, the system named is BaF3 PIM1 cells. Described as above. The format is cell-based, murine. Particulars: Mus musculus; BaF3 line transfected with PIM1, incubated overnight; read-out: Prolif BaF3 PIM1 (IC50). As to the method: as §1, §2
A further experiment relates to BaF3 parental cells. The experiment is described as above. The format is cell-based, murine. Particulars: Mus musculus; BaF3 parental line, medium with 2 ng/mL mIL-3, incubated overnight; read-out: Prolif BaF3 IL3 (IC50). Here is the method:
as §1, §2

The target in another experiment is PIM3 (Homo sapiens (Human), UniProt Q86V86). The experiment in a line: Pim kinase binding activity, Caliper LC3000 microfluidic peptide phosphorylation assay (Example 901). To be noted: 55 pM PIM3, 1 μM FAM-peptide, 10 μM ATP, 90 minutes at room temperature; read-out: PIM3 LC3K (KI). It counts as biochemical. As to the method:
(§3) PIM-1, -2, and -3 enzymes were generated as fusion proteins expressed in bacteria and purified by IMAC column chromatography (Sun, X., Chiu, J. F., and He, Q. Y. (2005) Expert Rev. Proteomics, 2:649-657). A fluorescent-labeled Pim-specific peptide substrate, was custom synthesized by American Peptide Company (Sunnyvale, Calif.). Reaction Buffer contained 10 mM HEPES, pH 7.2, 10 mM MgCl2, 0.01% Tween 20, 2 mM DTT. Termination Buffer contained 190 mM HEPES, pH 7.2, 0.015% Brij-35, 0.2% Coating Reagent 3 (Caliper Life Sciences, Hopkinton, Mass.), 20 mM EDTA. Separation Buffer contained 100 mM HEPES, pH 7.2, 0.015% Brij-35, 0.1% Coating Reagent 3, 1:200 Coating Reagent 8 (Caliper Life Sciences, Hopkinton, Mass.), 10 mM EDTA and 5% DMSO.
(§4) PIM reactions were carried out in a final volume of 10 μL per well in a 384-well plate. A standard enzymatic reaction, initiated by the addition of 5 μL 2×ATP and test compound to 5 μL of 2× enzyme and FAM-peptide, contained 20 pM PIM1, 50 pM PIM2, or 55 pM PIM3, 1 μM FAM-peptide, and 10 μM ATP, in Reaction Buffer. After 90 minutes of incubation at room temperature, the phosphorylation reaction was stopped by the addition of 10 μL Termination Buffer. The product and substrate in each independent reaction were separated on a 12-sipper microfluidic chip (Caliper Life Sciences, Hopkinton, Mass.) run on a Caliper LC3000® (Caliper Life Sciences, Hopkinton, Mass.). The separation of product and substrate was optimized by choosing voltages and pressure using Caliper's Optimizer software (Hopkinton, Mass.). The separation conditions used a downstream voltage of −500V, an upstream voltage of −2150V, and a screening pressure of −1.2 psi. The product and substrate fluorophore were excited at 488 nm and detected at 530 nm. Substrate conversion was calculated from the electropherogram using HTS Well Analyzer software (Caliper Life Sciences, Hopkinton, Mass.). Ki values for the test compound were calculated.

The next experiment addresses PIM1 (Homo sapiens (Human), UniProt P11309). The description is as above. It counts as biochemical. To be noted: 20 pM PIM1, 1 μM FAM-peptide, 10 μM ATP, 90 minutes at room temperature; read-out: PIM1 LC3K (KI). Here is the method: as §3, §4
A further experiment deals with PIM2 (Homo sapiens (Human), UniProt Q9P1W9). Described as above. It counts as biochemical. To be noted: 50 pM PIM2, 1 μM FAM-peptide, 10 μM ATP, 90 minutes at room temperature; read-out: PIM2 LC3K (KI). Here is the method: A fluorescent-labeled Pim-specific peptide substrate, was custom synthesized by American Peptide Company (Sunnyvale, Calif.). Reaction Buffer contained 10 mM HEPES, pH 7.2, 10 mM MgCl2, 0.01% Tween 20, 2 mM DTT. Termination Buffer contained 190 mM HEPES, pH 7.2, 0.015% Brij-35, 0.2% Coating Reagent 3 (Caliper Life Sciences, Hopkinton, Mass.), 20 mM EDTA. Separation Buffer contained 100 mM HEPES, pH 7.2, 0.015% Brij-35, 0.1% Coating Reagent 3, 1:200 Coating Reagent 8 (Caliper Life Sciences, Hopkinton, Mass.), 10 mM EDTA and 5% DMSO.
Chain of PIM2 (Q9P1W9 whole entry): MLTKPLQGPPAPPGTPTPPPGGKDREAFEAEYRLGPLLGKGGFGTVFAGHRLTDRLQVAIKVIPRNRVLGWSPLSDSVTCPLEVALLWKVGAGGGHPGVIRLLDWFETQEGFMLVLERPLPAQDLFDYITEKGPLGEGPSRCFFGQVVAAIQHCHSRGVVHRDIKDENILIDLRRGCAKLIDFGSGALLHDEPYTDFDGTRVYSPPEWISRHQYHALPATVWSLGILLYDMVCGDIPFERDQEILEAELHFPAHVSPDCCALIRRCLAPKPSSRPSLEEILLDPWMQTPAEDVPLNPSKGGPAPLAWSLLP
as §4, with “A standard enzymatic reaction, initiated by the addition of 5 μL 2×ATP and test compound to 5 μL of 2× enzyme and FAM-peptide, contained 20 pM PIM1, 50 pM PIM2, or 55 pM PIM3, 1 μM FAM-peptide, and 10 μM ATP, in Reaction Buffer.” left out, “The product and substrate fluorophore were excited at 488 nm and detected at 530 nm.” left out

By EC50 is commonly meant the midpoint of the concentration-response curve. As usually defined, the IC50 is the point on the concentration scale where inhibition reaches its midpoint. As usually defined, the Ki is a measure of affinity in units of concentration, obtained from inhibition or displacement.

Chain of PIM1 (P11309 whole entry): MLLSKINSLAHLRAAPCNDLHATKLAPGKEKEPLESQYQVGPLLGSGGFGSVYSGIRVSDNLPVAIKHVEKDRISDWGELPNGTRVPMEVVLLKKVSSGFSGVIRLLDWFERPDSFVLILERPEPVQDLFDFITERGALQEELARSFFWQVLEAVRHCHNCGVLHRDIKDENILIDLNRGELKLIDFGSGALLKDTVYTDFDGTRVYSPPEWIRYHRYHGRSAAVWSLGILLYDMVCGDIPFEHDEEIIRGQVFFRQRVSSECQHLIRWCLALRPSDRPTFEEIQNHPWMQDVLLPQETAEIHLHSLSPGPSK

Take `Cn1ncc(NC(=O)c2nc(-c3ccccc3F)ccc2N)c1N1CCC[C@H](N)C1` [Example 111, (S)-3-amino-N-(5-(3-aminopiperidin-1-yl)-1-methyl-1H-pyrazol-4-yl)-6-(2-fluorophenyl)picolinamide]: the concentration giving a half-maximal response (EC50) in experiment [1] was found to be 7.1 µM. Moreover, the results for the half-maximal inhibitory concentration (IC50) with BaF3 PIM1 cells and in the experiment on BaF3 parental cells were 4.2 µM and 13.2 µM, respectively.
In the same order, the values of `Cn1ncc(NC(=O)c2nc(-c3c(F)cccc3F)sc2N)c1N1CCC[C@H](N)C1` [Example 106, (S)-5-amino-N-(5-(3-aminopiperidin-1-yl)-1-methyl-1H-pyrazol-4-yl)-2-(2,6-difluorophenyl)thiazole-4-carboxamide] are 4.2 µM, 3.8 µM and 6.6 µM.
With `Cn1ncc(NC(=O)c2nc(-c3c(F)cccc3F)sc2N)c1N1CCC(N)CC1` [Example 108, 5-amino-N-(5-(4-aminopiperidin-1-yl)-1-methyl-1H-pyrazol-4-yl)-2-(2,6-difluorophenyl)thiazole-4-carboxamide], the EC50 in experiment [1] was 8.2 µM. In addition, the IC50 is 0.615 µM with BaF3 PIM1 cells and 4.3 µM in the experiment with BaF3 parental cells.
Take `Nc1sc(-c2c(F)cccc2F)nc1C(=O)Nc1cn[nH]c1N1CCC[C@H](N)C1` [Example 103, (S)-5-amino-N-(5-(3-aminopiperidin-1-yl)-1H-pyrazol-4-yl)-2-(2,6-difluorophenyl)thiazole-4-carboxamide]: the EC50 in experiment [1] is 9.1 µM. The Ki at PIM3 amounted to 0.00489 µM; at PIM1 it was 0.0065 µM; on PIM2 it was 0.0551 µM. For the same compound, the IC50 came out at 7.3 µM in the experiment on BaF3 PIM1 cells and 10.6 µM with BaF3 parental cells.

Source of the values: patent US8669361B2, “Pyrazol-4-yl-heterocyclyl-carboxamide compounds and methods of use” (Genentech, Inc., priority 2010, dated 2014).
